Reference: PMC9117146, “Immunogenicity and therapeutic targeting of a public neoantigen derived from mutated PIK3CA” (Nature Medicine, 2022)
No end group written: not given here. *: point of attachment. 5FAM = O=C1OC2(c3ccc(O)cc3Oc3cc(O)ccc32)c2ccc(C(=O)*)cc21

Key:
[1] = tested on: peptide-pulsed HLA-A*03:01+ target cells; experiment: Intracellular TNFα of TCR-transduced T cells with peptide-pulsed HLA-A*03:01+ targets; format: cell-based
HLA-A*03:02 = HLA-A*03:02 (Homo sapiens, UniProt P04439, E176V/L180Q); experiment: Differential scanning fluorimetry, peptide/HLA complex; format: binding; conditions: DSF, SYPRO Orange, 15 μM protein, HBS-EP pH 7.4, representative melt curve (n=3 technical replicates)
Protocol: Melting temperatures of WT and Mut PIK3α peptide/HLA-A*03:01 complexes were measured via differential scanning fluorimetry on a StepOnePlus Real-Time PCR System (Applied Biosystems), as previously described[68]. In brief, a 96-well plate was loaded with mixtures of 2 μl of 100× SYPRO Orange Protein Gel Stain (Invitrogen) and 18 μl of target protein at 15 μM in HBS-EP buffer (10 mM HEPES, 150 mM NaCl, 3 mM NaEDTA, 0.005% surfactant P20, pH 7.4). The excitation and emission wavelengths for the measurement were 587 nm and 607 nm, respectively. Temperature was scanned from 20 °C to 95 °C at a rate of 1 °C min^−1. Melting temperatures were determined by fitting the 1st derivative of each melting curve to a bi-Gaussian function in OriginPro.

[2] = target: HLA-A*03:01 (heavy chain with β2-microglobulin) (human); experiment: fluorescence polarisation; fluorescence anisotropy; dissociation of fluorescein-labeled peptide from 100 nM purified peptide/HLA-A*03:01 complex with 100 μM unlabeled peptide; 37 °C; 20 mM NaH2PO4, 75 mM NaCl, pH 7.4; t1/2 = 0.693/koff of the slowest rate

Molecule | t1/2 of the peptide/HLA complex [2] [h] | further results
IVFMGWTTK [peptide derived from transmembrane protein 87B (TM87B), position 407-415] | – | activation of T cells by peptide (in words) [1]: failed to activate TCR4-transduced T cells
AHHGGWTTK [pWT, wild-type PI3Kα counterpart peptide] | – | Tm (melting temperature of peptide/HLA complex) (HLA-A*03:02): 38.7 oC
fluorescein-labeled pMut derivative (P5 Gly substituted with a 5-carboxyfluorescein-modified lysine) (peptide) | 5.5 | –
AHHGK(5FAM)WTTK (also: 5-carboxyfluorescein-modified Lys at P5 (replacing Gly)) [fluorescein-labeled pWT derivative (P5 Gly substituted with a 5-carboxyfluorescein-modified lysine)] | 0.078 | –
